# Measurements: article PMC7725003, “Systematically Studying the Optimal Amino Acid Distribution Patterns of the Amphiphilic Structure by Using the Ultrashort Amphiphiles” (Frontiers in Microbiology, 2020)
# Where no end group is shown, it is not given here.
# Experiments:
# [1] = test system: Listeria monocytogenes CGMCC 1.1075; format: cell-based; conditions: CGMCC 1.1075, 24 h
# Method: (§1) The antimicrobial activities of the peptides were measured using a method adapted from the National Committee for Clinical Laboratory Standards (NCCLS) with some modifications ([Chou et al., 2016]). The specific procedure for these assays has been previously described. In brief, the bacterial cells were grown to a mid-logarithmic phase and diluted in MHB to an ultimate concentration of 0.5–1 × 10^6 CFU mL^–1. Subsequently, the peptides were consecutively diluted in a 0.2% BSA solution and then added to a bacterial solution in a 96-well plate at identical volumes. After incubation for 24 h at 37°C, the MICs were determined to be the lowest peptide concentration that inhibited 95% of the bacterial growth by monitoring the absorbance at 492 nm using a microplate reader. Subsequently, 50 μL of each incubation mixture was further transferred to agar plates and incubated overnight. The minimum bactericidal concentrations (MBCs) were determined as the lowest peptide concentration that killed greater than 99.9% of the bacterial cells. Every assay was reproduced more than 3 times.
# [2] = test system: S. typhimurium 7731; format: cell-based, Salmonella typhimurium; conditions: 7731, 24 h
# Method: as §1
# [3] = test system: S. typhimurium 14028; format: cell-based, Salmonella typhimurium; conditions: 14028, 24 h
# Method: as §1
# [4] = test system: S. aureus 25923; format: cell-based, Staphylococcus aureus; conditions: 25923, 24 h
# Method: as §1
# [5] = test system: S. aureus 29213; format: cell-based, Staphylococcus aureus; conditions: 29213, 24 h
# Method: as §1
# [6] = test system: S. aureus 29213; test: Salt sensitivity assay (MIC); format: cell-based, Staphylococcus aureus; conditions: for MIC, FeCl3: 4 μM FeCl3; for MIC, NH4Cl: 6 μM NH4Cl; for MIC, ZnCl2: 8 μM ZnCl2; for MIC, MgCl2: 1 mM MgCl2; for MIC, CaCl2: 2 mM CaCl2; for MIC, KCl: 4.5 mM KCl; for MIC, NaCl: 150 mM NaCl; for MIC, Control: no added salt, three independent assays
# Method: as §1
# (§2) The salt sensitivities of the peptides were determined. E. coli ATCC 25922 and S. aureus ATCC 29213 were incubated in the presence of various ultimate concentrations of physiological salts (150 mM NaCl, 4.5 mM KCl, 6 μM NH4Cl, 8 μM ZnCl2, 1 mM MgCl2, 2mM CaCl2, and 4 μM FeCl3) according to our previous protocol ([Yang et al., 2019]). These tests were performed under the MICs, and three independent assays were performed.
# [7] = test system: MRSA 43300; format: cell-based, methicillin-resistant S. aureus; conditions: 43300, 24 h
# Method: as §1
# [8] = test system: P. aeruginosa 27853; format: cell-based, Pseudomonas aeruginosa; conditions: 27853, 24 h
# Method: as §1
# [9] = test system: S. pullorum 7913; format: cell-based, Salmonella pullorum; conditions: 7913, 24 h
# Method: as §1
# [10] = test system: all of the tested bacterial strains; test: Geometric mean of MICs, all tested bacterial strains; format: cell-based; conditions: for GM, All: geometric mean of MICs across all tested strains; for TI, All: therapeutic index TI = MHC/GM MIC
# Source text: The antimicrobial activity of AMPs is the most decisive index for evaluating the clinical application of antimicrobial drugs. Many antimicrobial agents inhibit bacterial growth rather than kill the bacteria quickly, and long-term infections are pathogens that are not completely killed, which results in bacterial severe drug resistance. […] The geometric mean (GM) values of the MICs/MBCs of the two series across all of the tested bacterial strains are represented in Table 3, which depicts the average bacteriostatic/bactericidal level of a peptide.
# as §1
# [11] = test system: E. coli ATCC 25922; test: Salt sensitivity assay (MIC); format: cell-based, Escherichia coli; conditions: for MIC, FeCl3: 4 μM FeCl3; for MIC, NH4Cl: 6 μM NH4Cl; for MIC, ZnCl2: 8 μM ZnCl2; for MIC, MgCl2: 1 mM MgCl2; for MIC, CaCl2: 2 mM CaCl2; for MIC, KCl: 4.5 mM KCl; for MIC, NaCl: 150 mM NaCl; for MIC, Control: no added salt, three independent assays
# Method: as §1, §2
# [12] = test system: E. coli 25922; format: cell-based, Escherichia coli; conditions: 25922, 24 h
# Method: as §1
# [13] = test system: E. coli O78; format: cell-based, Escherichia coli; conditions: O78, 24 h
# Method: as §1
# [14] = test system: E. coli UB1005; format: cell-based, Escherichia coli; conditions: UB1005, 24 h
# Method: as §1
# [15] = test system: B. subtilis 63501; format: cell-based, Bacillus subtilis; conditions: 63501, 24 h
# Method: as §1
# [16] = test system: E. faecalis 29212; format: cell-based, Enterococcus faecalis; conditions: 29212, 24 h
# Method: as §1
# [17] = test system: S. epidermidis 12228; format: cell-based, Staphylococcus epidermidis; conditions: 12228, 24 h
# Method: as §1
# [18] = test system: Gram-negative bacteria; conditions: for GM, Gram-negative bacteria: geometric mean of MICs (Table 3); for TI, Gram-negative bacteria: therapeutic index TI = MHC/GM MIC
# Method: (§3) The antimicrobial activity of AMPs is the most decisive index for evaluating the clinical application of antimicrobial drugs.
# as §1, with “The minimum bactericidal concentrations (MBCs) were determined as the lowest peptide concentration that killed greater than 99.9% of the bacterial cells.” left out
# [19] = test system: Gram-positive bacteria; conditions: for GM, Gram-positive bacteria: geometric mean of MICs (Table 3); for TI, Gram-positive bacteria: therapeutic index TI = MHC/GM MIC
# Method: as §3
# as §1, with “The minimum bactericidal concentrations (MBCs) were determined as the lowest peptide concentration that killed greater than 99.9% of the bacterial cells.” left out
substance,measurement,setting,value
WRRWRWWRW-NH2 [W12],MBC,[1],4 µM
same,MIC,[1],2 µM
same,MBC,[2],16 µM
same,MIC,[2],8 µM
same,MBC,[3],8 µM
same,MIC,[3],4 µM
same,MBC,[4],4 µM
same,MIC,[4],2 µM
same,MBC,[5],4 µM
same,MIC,[5],2 µM
same,"MIC, FeCl3",[6],2 µM
same,"MIC, NH4Cl",[6],2 µM
same,"MIC, ZnCl2",[6],2 µM
same,"MIC, MgCl2",[6],2 µM
same,"MIC, CaCl2",[6],2 µM
same,"MIC, KCl",[6],2 µM
same,"MIC, NaCl",[6],4 µM
same,"MIC, Control",[6],2 µM
same,MBC,[7],4 µM
same,MIC,[7],2 µM
same,MBC,[8],8 µM
same,MIC,[8],4 µM
same,MBC,[9],8 µM
same,MIC,[9],4 µM
same,"GM, All",[10],3.08 µM
same,"TI, All",[10],41.56
same,"MIC, FeCl3",[11],4 µM
same,"MIC, NH4Cl",[11],4 µM
same,"MIC, ZnCl2",[11],2 µM
same,"MIC, MgCl2",[11],4 µM
same,"MIC, CaCl2",[11],16 µM
same,"MIC, KCl",[11],4 µM
same,"MIC, NaCl",[11],32 µM
same,"MIC, Control",[11],4 µM
same,MBC,[12],8 µM
same,MIC,[12],4 µM
same,MBC,[13],8 µM
same,MIC,[13],4 µM
same,MBC,[14],8 µM
same,MIC,[14],4 µM
same,MBC,[15],2 µM
same,MIC,[15],1 µM
same,MBC,[16],8 µM
same,MIC,[16],4 µM
same,MBC,[17],4 µM
same,MIC,[17],2 µM
same,"GM, Gram-negative bacteria",[18],4.32 µM
same,"TI, Gram-negative bacteria",[18],29.63
same,"GM, Gram-positive bacteria",[19],2.00 µM
same,"TI, Gram-positive bacteria",[19],64.00
RRWWWRWRW-NH2 [W8],MBC,[1],4 µM
same,MIC,[1],2 µM
same,MBC,[2],8 µM
same,MIC,[2],4 µM
same,MBC,[3],8 µM
same,MIC,[3],4 µM
same,MBC,[4],4 µM
same,MIC,[4],2 µM
same,MBC,[5],4 µM
same,MIC,[5],2 µM
same,"MIC, FeCl3",[6],2 µM
same,"MIC, NH4Cl",[6],4 µM
same,"MIC, ZnCl2",[6],4 µM
same,"MIC, MgCl2",[6],4 µM
same,"MIC, CaCl2",[6],4 µM
same,"MIC, KCl",[6],1 µM
same,"MIC, NaCl",[6],2 µM
same,"MIC, Control",[6],2 µM
same,MBC,[7],4 µM
same,MIC,[7],2 µM
same,MBC,[8],8 µM
same,MIC,[8],4 µM
same,MBC,[9],4 µM
same,MIC,[9],2 µM
same,"GM, All",[10],2.71 µM
same,"TI, All",[10],47.23
same,"MIC, FeCl3",[11],2 µM
same,"MIC, NH4Cl",[11],4 µM
same,"MIC, ZnCl2",[11],4 µM
same,"MIC, MgCl2",[11],16 µM
same,"MIC, CaCl2",[11],8 µM
same,"MIC, KCl",[11],16 µM
same,"MIC, NaCl",[11],32 µM
same,"MIC, Control",[11],4 µM
same,MBC,[12],8 µM
same,MIC,[12],4 µM
same,MBC,[13],8 µM
same,MIC,[13],4 µM
same,MBC,[14],8 µM
same,MIC,[14],4 µM
same,MBC,[15],2 µM
same,MIC,[15],1 µM
same,MBC,[16],8 µM
same,MIC,[16],4 µM
same,MBC,[17],4 µM
same,MIC,[17],2 µM
same,"GM, Gram-negative bacteria",[18],3.43 µM
same,"TI, Gram-negative bacteria",[18],37.32
same,"GM, Gram-positive bacteria",[19],2.00 µM
same,"TI, Gram-positive bacteria",[19],64.00
WRRRWWWWR-NH2 [W6],MBC,[1],4 µM
same,MIC,[1],2 µM
same,MBC,[2],16 µM
same,MIC,[2],8 µM
same,MBC,[3],16 µM
same,MIC,[3],8 µM
same,MBC,[4],4 µM
same,MIC,[4],2 µM
same,MBC,[5],4 µM
same,MIC,[5],2 µM
same,"MIC, FeCl3",[6],2 µM
same,"MIC, NH4Cl",[6],2 µM
same,"MIC, ZnCl2",[6],2 µM
same,"MIC, MgCl2",[6],4 µM
same,"MIC, CaCl2",[6],4 µM
same,"MIC, KCl",[6],2 µM
same,"MIC, NaCl",[6],4 µM
same,"MIC, Control",[6],2 µM
same,MBC,[7],4 µM
same,MIC,[7],2 µM
same,MBC,[8],16 µM
same,MIC,[8],8 µM
same,MBC,[9],16 µM
same,MIC,[9],8 µM
same,"GM, All",[10],3.51 µM
same,"TI, All",[10],72.93
same,"MIC, FeCl3",[11],4 µM
same,"MIC, NH4Cl",[11],2 µM
same,"MIC, ZnCl2",[11],4 µM
same,"MIC, MgCl2",[11],8 µM
same,"MIC, CaCl2",[11],16 µM
same,"MIC, KCl",[11],8 µM
same,"MIC, NaCl",[11],16 µM
same,"MIC, Control",[11],4 µM
same,MBC,[12],8 µM
same,MIC,[12],4 µM
same,MBC,[13],8 µM
same,MIC,[13],4 µM
same,MBC,[14],8 µM
same,MIC,[14],4 µM
same,MBC,[15],2 µM
same,MIC,[15],1 µM
same,MBC,[16],8 µM
same,MIC,[16],4 µM
same,MBC,[17],8 µM
same,MIC,[17],4 µM
same,"GM, Gram-negative bacteria",[18],5.04 µM
same,"TI, Gram-negative bacteria",[18],50.79
same,"GM, Gram-positive bacteria",[19],2.21 µM
same,"TI, Gram-positive bacteria",[19],115.84
